Experiments:
[1] = target: T1, Alpha-2A adrenergic receptor (Homo sapiens, UniProt P08913); type: functional, cell-based
T1 sequence (P08913 whole entry): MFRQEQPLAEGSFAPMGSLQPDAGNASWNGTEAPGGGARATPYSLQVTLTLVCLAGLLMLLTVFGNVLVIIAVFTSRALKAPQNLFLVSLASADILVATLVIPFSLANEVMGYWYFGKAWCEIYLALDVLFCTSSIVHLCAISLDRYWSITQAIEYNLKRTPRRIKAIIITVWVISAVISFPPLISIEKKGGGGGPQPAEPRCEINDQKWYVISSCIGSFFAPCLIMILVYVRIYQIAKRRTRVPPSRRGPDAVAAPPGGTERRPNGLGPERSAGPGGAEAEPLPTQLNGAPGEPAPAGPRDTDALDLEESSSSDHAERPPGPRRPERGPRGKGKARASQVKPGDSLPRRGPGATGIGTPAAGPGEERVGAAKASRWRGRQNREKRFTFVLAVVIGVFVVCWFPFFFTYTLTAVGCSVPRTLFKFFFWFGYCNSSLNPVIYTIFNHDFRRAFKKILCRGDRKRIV

[2] = target: Voltage-dependent L-type calcium channel subunit alpha-1C (Rattus norvegicus, UniProt P22002); type: functional
Sequence of Voltage-dependent L-type calcium channel subunit alpha-1C (P22002 whole entry): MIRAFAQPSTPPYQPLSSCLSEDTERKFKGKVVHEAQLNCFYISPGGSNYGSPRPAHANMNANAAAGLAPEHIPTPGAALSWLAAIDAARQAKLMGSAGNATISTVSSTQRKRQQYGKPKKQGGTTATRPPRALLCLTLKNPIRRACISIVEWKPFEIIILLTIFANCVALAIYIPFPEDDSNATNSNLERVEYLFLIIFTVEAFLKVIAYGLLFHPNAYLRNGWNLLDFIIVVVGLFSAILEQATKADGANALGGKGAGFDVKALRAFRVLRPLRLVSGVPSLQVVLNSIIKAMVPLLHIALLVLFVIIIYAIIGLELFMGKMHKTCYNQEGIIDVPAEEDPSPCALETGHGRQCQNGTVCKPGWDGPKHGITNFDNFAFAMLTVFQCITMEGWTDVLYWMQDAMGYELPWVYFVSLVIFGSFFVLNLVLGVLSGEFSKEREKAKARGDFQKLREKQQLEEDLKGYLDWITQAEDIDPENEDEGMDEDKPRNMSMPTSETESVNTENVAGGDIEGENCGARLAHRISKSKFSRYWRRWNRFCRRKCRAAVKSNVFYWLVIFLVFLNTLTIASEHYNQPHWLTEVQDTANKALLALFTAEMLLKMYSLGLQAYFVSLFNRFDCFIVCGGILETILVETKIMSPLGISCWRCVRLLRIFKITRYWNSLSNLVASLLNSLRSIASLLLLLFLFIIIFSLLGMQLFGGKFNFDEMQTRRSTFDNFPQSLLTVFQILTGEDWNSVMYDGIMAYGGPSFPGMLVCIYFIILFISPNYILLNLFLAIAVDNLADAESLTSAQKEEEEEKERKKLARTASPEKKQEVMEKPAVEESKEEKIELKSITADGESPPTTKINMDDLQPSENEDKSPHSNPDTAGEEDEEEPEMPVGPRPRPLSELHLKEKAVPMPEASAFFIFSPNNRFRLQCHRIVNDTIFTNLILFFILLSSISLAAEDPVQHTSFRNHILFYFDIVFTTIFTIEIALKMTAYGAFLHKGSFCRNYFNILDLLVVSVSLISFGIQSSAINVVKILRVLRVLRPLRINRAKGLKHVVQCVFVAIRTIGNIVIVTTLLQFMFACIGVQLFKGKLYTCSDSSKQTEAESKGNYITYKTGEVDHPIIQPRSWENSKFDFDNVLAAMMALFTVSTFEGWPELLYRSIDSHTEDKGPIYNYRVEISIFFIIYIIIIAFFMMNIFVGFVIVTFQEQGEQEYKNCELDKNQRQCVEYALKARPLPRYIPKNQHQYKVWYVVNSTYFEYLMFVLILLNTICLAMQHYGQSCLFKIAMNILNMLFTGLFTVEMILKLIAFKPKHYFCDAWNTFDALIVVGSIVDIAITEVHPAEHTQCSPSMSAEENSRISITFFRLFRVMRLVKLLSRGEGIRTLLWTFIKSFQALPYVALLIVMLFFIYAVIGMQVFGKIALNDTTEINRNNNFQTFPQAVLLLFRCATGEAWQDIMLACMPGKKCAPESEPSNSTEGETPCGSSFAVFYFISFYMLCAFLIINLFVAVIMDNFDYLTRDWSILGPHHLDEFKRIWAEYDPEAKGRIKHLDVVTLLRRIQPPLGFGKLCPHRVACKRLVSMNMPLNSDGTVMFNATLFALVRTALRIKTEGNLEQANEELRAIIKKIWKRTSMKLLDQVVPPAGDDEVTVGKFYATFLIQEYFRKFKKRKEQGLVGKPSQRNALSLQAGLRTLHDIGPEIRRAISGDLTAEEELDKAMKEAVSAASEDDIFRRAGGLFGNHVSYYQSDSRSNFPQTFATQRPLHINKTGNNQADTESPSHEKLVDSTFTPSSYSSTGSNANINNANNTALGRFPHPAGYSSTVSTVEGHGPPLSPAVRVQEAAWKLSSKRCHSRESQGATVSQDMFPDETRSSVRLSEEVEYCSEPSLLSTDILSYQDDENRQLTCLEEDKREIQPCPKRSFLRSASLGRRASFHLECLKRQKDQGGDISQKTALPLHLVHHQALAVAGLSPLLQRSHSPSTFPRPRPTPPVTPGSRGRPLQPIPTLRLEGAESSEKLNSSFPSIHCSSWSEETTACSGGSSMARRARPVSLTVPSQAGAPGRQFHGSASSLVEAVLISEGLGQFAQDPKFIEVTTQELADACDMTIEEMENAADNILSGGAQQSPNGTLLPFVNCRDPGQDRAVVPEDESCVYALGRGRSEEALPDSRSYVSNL

[3] = target: T2, Muscarinic acetylcholine receptor M2 (Homo sapiens, UniProt P08172)
T2 sequence (P08172 whole entry): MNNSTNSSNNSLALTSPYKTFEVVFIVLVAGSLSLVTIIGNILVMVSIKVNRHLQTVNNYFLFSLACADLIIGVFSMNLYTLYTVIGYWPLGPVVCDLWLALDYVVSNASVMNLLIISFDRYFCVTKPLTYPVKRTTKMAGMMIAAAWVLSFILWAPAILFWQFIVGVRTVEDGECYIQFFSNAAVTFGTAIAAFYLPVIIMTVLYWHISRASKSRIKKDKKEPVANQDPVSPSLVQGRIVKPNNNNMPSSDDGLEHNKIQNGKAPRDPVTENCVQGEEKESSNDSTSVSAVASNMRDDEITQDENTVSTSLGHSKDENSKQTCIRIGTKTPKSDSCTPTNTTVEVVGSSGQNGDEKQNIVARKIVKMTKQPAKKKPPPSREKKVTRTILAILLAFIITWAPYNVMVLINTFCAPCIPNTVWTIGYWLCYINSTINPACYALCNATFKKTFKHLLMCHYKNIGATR

Histamine H3 receptor = Histamine H3 receptor (Homo sapiens, UniProt Q9Y5N1)
Sequence of Histamine H3 receptor (Q9Y5N1 whole entry): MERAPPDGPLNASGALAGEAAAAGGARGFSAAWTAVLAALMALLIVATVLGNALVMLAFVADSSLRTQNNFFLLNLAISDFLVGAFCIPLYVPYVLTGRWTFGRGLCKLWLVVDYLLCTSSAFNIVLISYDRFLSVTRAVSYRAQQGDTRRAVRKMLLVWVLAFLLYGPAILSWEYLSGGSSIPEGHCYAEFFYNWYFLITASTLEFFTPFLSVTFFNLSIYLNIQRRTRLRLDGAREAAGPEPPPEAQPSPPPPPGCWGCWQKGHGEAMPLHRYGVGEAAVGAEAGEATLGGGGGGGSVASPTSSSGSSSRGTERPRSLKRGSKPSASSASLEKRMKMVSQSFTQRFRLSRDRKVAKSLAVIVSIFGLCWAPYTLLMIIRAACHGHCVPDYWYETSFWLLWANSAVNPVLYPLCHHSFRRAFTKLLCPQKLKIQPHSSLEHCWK

[4] = target: 5-hydroxytryptamine receptor 2B (Homo sapiens, UniProt P41595); type: functional, cell-based
Sequence of 5-hydroxytryptamine receptor 2B (P41595 whole entry): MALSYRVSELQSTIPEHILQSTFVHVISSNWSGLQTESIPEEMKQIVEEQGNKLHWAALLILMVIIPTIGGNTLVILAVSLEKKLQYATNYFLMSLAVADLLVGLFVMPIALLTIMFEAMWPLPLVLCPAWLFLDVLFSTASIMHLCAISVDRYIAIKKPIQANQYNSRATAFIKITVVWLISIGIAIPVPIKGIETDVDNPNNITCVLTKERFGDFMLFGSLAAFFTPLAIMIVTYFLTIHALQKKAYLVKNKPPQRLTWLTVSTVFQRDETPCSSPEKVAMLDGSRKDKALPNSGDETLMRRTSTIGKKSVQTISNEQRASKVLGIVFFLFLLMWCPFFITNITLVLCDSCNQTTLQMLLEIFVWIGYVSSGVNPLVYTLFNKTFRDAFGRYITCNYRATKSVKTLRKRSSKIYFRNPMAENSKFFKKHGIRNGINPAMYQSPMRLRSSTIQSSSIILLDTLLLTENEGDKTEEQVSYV

Mu-type opioid receptor = Mu-type opioid receptor (Homo sapiens, UniProt P35372)
Sequence of Mu-type opioid receptor (P35372 whole entry): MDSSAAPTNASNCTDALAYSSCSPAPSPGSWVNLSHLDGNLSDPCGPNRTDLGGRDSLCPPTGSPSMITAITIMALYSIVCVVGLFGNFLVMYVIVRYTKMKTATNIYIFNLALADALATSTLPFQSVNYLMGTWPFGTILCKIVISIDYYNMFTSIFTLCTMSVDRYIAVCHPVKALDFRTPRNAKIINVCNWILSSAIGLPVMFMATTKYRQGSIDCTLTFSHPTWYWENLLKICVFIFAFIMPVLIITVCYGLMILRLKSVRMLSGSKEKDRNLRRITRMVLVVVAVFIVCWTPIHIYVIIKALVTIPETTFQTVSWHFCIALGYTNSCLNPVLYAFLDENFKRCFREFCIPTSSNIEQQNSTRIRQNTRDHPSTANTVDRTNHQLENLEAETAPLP
Further: assay procedure not described here.

Q: For `CC(C(=O)O)c1ccc(-c2ccccc2)c(F)c1` (stereo not drawn) [FLURBIPROFEN], which AC50 [1] is on record?
A: > 10 µM

Q: What about the AC50 [2] of the same compound?
A: > 10 µM

Q: And the AC50 [3]?
A: > 30 µM

Q: What about the AC50 (Histamine H3 receptor) of the same compound?
A: > 30 µM

Q: What about the AC50 [4] of the same compound?
A: > 30 µM

Q: And the AC50 (Mu-type opioid receptor)?
A: > 30 µM

Q: Which AC50 [3] does the source give for `COc1ccc(CN(CCN(C)C)c2ccccn2)cc1` [PYRILAMINE] here?
A: 8.61 µM

Q: And the AC50 (Histamine H3 receptor)?
A: > 30 µM

Q: What about the AC50 [4] of the same compound?
A: > 30 µM

Q: What about the AC50 (Mu-type opioid receptor) of the same compound?
A: 9.05 µM

Q: Which AC50 [3] does the source give for `CC(C)N(CCNC(=O)CN1CCCC1=O)C(C)C` here?
A: > 30 µM

Q: What about the AC50 (Histamine H3 receptor) of the same compound?
A: > 30 µM

Q: And the AC50 [4]?
A: > 30 µM

Q: And the AC50 (Mu-type opioid receptor)?
A: > 30 µM

Q: `C[C@H](Cc1cc2c(c(C(N)=O)c1)N(CCCO)CC2)NCCOc1ccccc1OCC(F)(F)F` [SILODOSIN] was tested. Which AC50 [1] did it give?
A: 10 µM

Q: And the AC50 [3]?
A: > 30 µM

Q: And the AC50 (Histamine H3 receptor)?
A: > 30 µM

Q: And the AC50 [4]?
A: > 30 µM

Q: What about the AC50 (Mu-type opioid receptor) of the same compound?
A: 3.34 µM

Q: For `CCCc1nc(C(C)(C)O)c(C(=O)O)n1Cc1ccc(-c2ccccc2-c2nnn[nH]2)cc1` [OLMESARTAN], which AC50 [3] is on record?
A: > 30 µM

Q: What about the AC50 (Histamine H3 receptor) of the same compound?
A: > 30 µM

Q: And the AC50 [4]?
A: > 30 µM

Q: What about the AC50 (Mu-type opioid receptor) of the same compound?
A: > 30 µM

Q: Which AC50 [3] does the source give for `CN(C)CCOC(c1ccccc1)c1ccc(Br)cc1` (stereo not drawn) [BROMODIPHENHYDRAMINE] here?
A: 1.42 µM

Q: And the AC50 (Histamine H3 receptor)?
A: > 30 µM

Q: What about the AC50 [4] of the same compound?
A: > 30 µM

Q: What about the AC50 (Mu-type opioid receptor) of the same compound?
A: 17.9 µM

Q: `Cc1cc(NC(=O)C2=C(O)c3ccccc3S(=O)(=O)N2C)no1` [ISOXICAM] was tested. Which AC50 [3] did it give?
A: > 30 µM

Q: What about the AC50 (Histamine H3 receptor) of the same compound?
A: > 30 µM

Q: And the AC50 [4]?
A: > 30 µM

Q: And the AC50 (Mu-type opioid receptor)?
A: > 30 µM

Q: Which results are given for `C=C1CC[C@H](O)C/C1=C/C=C1\CCC[C@]2(C)[C@@H]([C@H](C)/C=C/[C@H](C)C(C)C)CC[C@@H]12` [ERGOCALCIFEROL]?
A: AC50 [3]: > 30 µM; AC50 (Histamine H3 receptor): > 30 µM; AC50 [4]: > 30 µM; AC50 (Mu-type opioid receptor): > 30 µM

Q: Which results are given for `CC1=CCC(C(C)(C)O)CC1O` (stereo not drawn) [SOBREROL]?
A: AC50 [3]: > 30 µM; AC50 (Histamine H3 receptor): > 30 µM; AC50 [4]: > 30 µM; AC50 (Mu-type opioid receptor): > 30 µM

Q: With `Cc1c(N(C)CS(=O)(=O)O)c(=O)n(-c2ccccc2)n1C` [METAMIZOLE] as the compound, how does the AC50 [3] read?
A: > 30 µM

Q: What about the AC50 (Histamine H3 receptor) of the same compound?
A: > 30 µM

Q: And the AC50 [4]?
A: > 30 µM

Q: And the AC50 (Mu-type opioid receptor)?
A: > 30 µM

Source: ChEMBL document CHEMBL5291721, “A preclinical secondary pharmacology resource illuminates target-adverse drug reaction associations of marketed drugs” (Nat Commun, 2023)
